This is an account of results in PubChem BioAssay (NCI).

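Dose response: 5 concentrations. Exposure: 48 h. Format: 96-well plates. Endpoint: linear interpolation; highest concentration if not reached. GI50: concentration for 50% inhibition of growth. The concentration for full growth arrest is given as TGI.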

Among the test systems are IGROV1 ovarian; M14 melanoma; NCI-H226 lung; OVCAR-3 ovarian; SF-268 CNS; SK-MEL-2 melanoma; SK-MEL-28 melanoma; SNB-19 CNS; TK-10 renal; UO-31 renal.
Common to all, as to assay: growth of human tumour cells (NCI), 48 h

Take `O=[N+]([O-])c1cc(C(F)(F)F)ccc1Sc1ccc(C(F)(F)F)cc1[N+](=O)[O-]`: the GI50 was 17.1 µM with IGROV1 ovarian; 7.23 µM with M14 melanoma; > 100 µM with NCI-H226 lung; 5.11 µM in the assay on OVCAR-3 ovarian; 7.07 µM in the assay with SF-268 CNS; 3.32 µM in the assay on SK-MEL-2 melanoma. The GI50 in the assay on SK-MEL-28 melanoma is 13.2 µM; in the assay with SNB-19 CNS it was 70.2 µM; in the assay on TK-10 renal it was 28.3 µM; with UO-31 renal, 34.8 µM. In addition, the TGI is > 100 µM with IGROV1 ovarian; > 100 µM in the assay with M14 melanoma; > 100 µM in the assay on NCI-H226 lung; 54.9 µM in the assay on OVCAR-3 ovarian; > 100 µM with SF-268 CNS; 9.96 µM with SK-MEL-2 melanoma. Further, the TGI in the assay with SK-MEL-28 melanoma, in the assay on SNB-19 CNS, in the assay with TK-10 renal and with UO-31 renal was > 100 µM each time.
Turning to `CC(CN(C)C)Oc1ccccc1NC1=C(Cl)C(=O)C(Nc2ccccc2OC(C)CN(C)C)=C(Cl)C1=O` (stereo not given), the GI50 with IGROV1 ovarian is 0.58 µM; in the assay on M14 melanoma it was 1.38 µM; in the assay on NCI-H226 lung, 1.41 µM; in the assay with OVCAR-3 ovarian, 0.167 µM; with SF-268 CNS it was 1.49 µM; in the assay on SK-MEL-2 melanoma it was 1.34 µM. The GI50 with SK-MEL-28 melanoma is 1.5 µM; in the assay with SNB-19 CNS, 1.71 µM; with TK-10 renal, 0.479 µM; in the assay on UO-31 renal, 0.437 µM. In addition, the TGI worked out at 1.88 µM with IGROV1 ovarian; 2.83 µM in the assay with M14 melanoma; 2.91 µM in the assay on NCI-H226 lung; 0.31 µM with OVCAR-3 ovarian; 3.06 µM in the assay with SF-268 CNS; 2.89 µM in the assay with SK-MEL-2 melanoma. The TGI in the assay on SK-MEL-28 melanoma worked out at 2.87 µM; in the assay with SNB-19 CNS, 3.28 µM; in the assay on TK-10 renal, 0.974 µM; in the assay on UO-31 renal it was 0.853 µM.
Regarding `O=C(Nc1cccc(-c2ccc(Cl)c(C(F)(F)F)c2)c1)C1CCN(Cc2cccc3cccnc23)CC1`, the GI50 with IGROV1 ovarian was 1.55 µM; in the assay with M14 melanoma, 1.64 µM; in the assay with NCI-H226 lung, 1.88 µM; in the assay with OVCAR-3 ovarian it was 1.72 µM; in the assay with SF-268 CNS, 1.79 µM; in the assay on SK-MEL-2 melanoma it was 1.99 µM. The GI50 in the assay on SK-MEL-28 melanoma is 1.75 µM; in the assay on SNB-19 CNS, 1.74 µM; in the assay on TK-10 renal, 1.63 µM; in the assay with UO-31 renal, 1.25 µM. Further, the TGI came to 2.99 µM in the assay on IGROV1 ovarian; 3.16 µM in the assay on M14 melanoma; 3.89 µM in the assay with NCI-H226 lung; 3.17 µM with OVCAR-3 ovarian; 3.55 µM in the assay on SF-268 CNS; 3.85 µM in the assay on SK-MEL-2 melanoma. Moreover, the TGI with SK-MEL-28 melanoma amounted to 3.14 µM; in the assay on SNB-19 CNS it was 3.18 µM; in the assay with TK-10 renal, 3.16 µM; in the assay on UO-31 renal, 2.52 µM.
For `Cc1cn2c(/C=N/N=C(N)N)c(-c3ccccn3)nc2s1`, the GI50 is 16 µM in the assay with IGROV1 ovarian; 19.6 µM with M14 melanoma; 25.1 µM in the assay on NCI-H226 lung; 17.3 µM with OVCAR-3 ovarian; 8.62 µM in the assay with SF-268 CNS; 14 µM in the assay with SK-MEL-2 melanoma. Moreover, the GI50 was 11.6 µM in the assay with SK-MEL-28 melanoma, 15.1 µM in the assay with SNB-19 CNS, 16.1 µM with TK-10 renal and 7.98 µM in the assay with UO-31 renal. Moreover, the TGI with IGROV1 ovarian is > 100 µM; with M14 melanoma it was > 52.1 µM; in the assay on NCI-H226 lung it was > 58.2 µM; in the assay with OVCAR-3 ovarian, 34.2 µM; in the assay on SF-268 CNS, 45.4 µM; with SK-MEL-2 melanoma, 48.1 µM. Moreover, the TGI in the assay with SK-MEL-28 melanoma was 36.9 µM; with SNB-19 CNS it was 35.8 µM; in the assay with TK-10 renal, 32.8 µM; with UO-31 renal it was > 20.5 µM.
Turning to `O=C(N/N=C/c1ccc(O)cc1O)c1cccc(Nc2ccnc(C(F)(F)F)c2)c1`, the GI50 is 1.28 µM with IGROV1 ovarian; 0.925 µM in the assay with M14 melanoma; 1.21 µM in the assay on NCI-H226 lung; 0.488 µM in the assay on OVCAR-3 ovarian; 0.811 µM with SF-268 CNS; 7.39 µM in the assay on SK-MEL-2 melanoma. Besides, the GI50 in the assay with SK-MEL-28 melanoma was 1.83 µM; in the assay with SNB-19 CNS, 1.01 µM; in the assay with TK-10 renal it was 2.98 µM; in the assay on UO-31 renal, 1.44 µM. Further, the TGI in the assay with IGROV1 ovarian worked out at 27.7 µM; in the assay with M14 melanoma it was 8.5 µM; in the assay with NCI-H226 lung, 9.44 µM; with OVCAR-3 ovarian it was 30.9 µM; with SF-268 CNS, 30.4 µM; with SK-MEL-2 melanoma it was 27.1 µM. Further, the TGI in the assay with SK-MEL-28 melanoma was 16.6 µM; in the assay on SNB-19 CNS, > 72.6 µM; with TK-10 renal, 37.3 µM; in the assay with UO-31 renal, 33.6 µM.
Take `Cc1cc2c(C(N)=O)c(N)n(-c3c(C)ccc(O)c3C)c2nc1C`: the GI50 is 3.04 µM in the assay with IGROV1 ovarian; 0.834 µM in the assay on M14 melanoma; 0.569 µM in the assay on NCI-H226 lung; 3.07 µM in the assay on OVCAR-3 ovarian; 9.28 µM in the assay with SF-268 CNS; 3.59 µM in the assay on SK-MEL-2 melanoma. For the same compound, the GI50 is 4.73 µM with SK-MEL-28 melanoma, 8.28 µM with SNB-19 CNS, 4.11 µM in the assay on TK-10 renal and 3.18 µM in the assay with UO-31 renal. Moreover, the TGI with IGROV1 ovarian worked out at 12 µM; in the assay on M14 melanoma, 5.83 µM; in the assay on NCI-H226 lung, 4.89 µM; in the assay with OVCAR-3 ovarian, 14.7 µM; in the assay on SF-268 CNS it was 52.9 µM; with SK-MEL-2 melanoma it was 21.2 µM. In addition, the TGI in the assay with SK-MEL-28 melanoma was > 100 µM; with SNB-19 CNS it was > 100 µM; with TK-10 renal, 23.9 µM; in the assay with UO-31 renal, 14.9 µM.
For the compound `N#Cc1cc(S(=O)(=O)Nc2nnc(-c3ccccc3)c(-c3ccccc3)n2)c(SCc2ccccc2)cc1Cl`, the GI50 was 29.7 µM in the assay with IGROV1 ovarian; 27.4 µM in the assay with M14 melanoma; 27.6 µM in the assay on NCI-H226 lung; 15.3 µM in the assay with OVCAR-3 ovarian; 29.2 µM in the assay with SF-268 CNS; 41.8 µM in the assay with SK-MEL-2 melanoma. Besides, the GI50 with SK-MEL-28 melanoma is 35.2 µM; in the assay with SNB-19 CNS, 35.1 µM; in the assay on TK-10 renal, 22.9 µM; in the assay with UO-31 renal it was 26.8 µM. Besides, the TGI in the assay with IGROV1 ovarian was 83.5 µM; in the assay on M14 melanoma it was 80.4 µM; in the assay with NCI-H226 lung, 70.7 µM; in the assay with OVCAR-3 ovarian, 31.5 µM; in the assay with SF-268 CNS, > 100 µM; in the assay with SK-MEL-2 melanoma it was > 100 µM. The TGI with SK-MEL-28 melanoma was 91.3 µM; in the assay with SNB-19 CNS it was > 100 µM; in the assay on TK-10 renal it was 46.2 µM; with UO-31 renal it was 71.3 µM.
